The results in this text go back to patent publication US20230303570A1, “KINASE INHIBITORS AND USES THEREOF” (ABM Therapeutics Corporation, priority 2020, published 2023).

Holding throughout (type): biochemical
For test [1], the target named is c-Kit (Homo sapiens, UniProt P10721). The experiment in a line: cKit kinase mobility shift assay. On the procedure:
The effect of the compounds on the activity of cKit, RET and AXL kinases were assessed by Mobility shift assay. • 1. 1× kinase base buffer and stop buffer for testing kinases were prepared • 1-1) 1× Kinase base buffer (50 mM HEPES, pH 7.5, 0.01% Triton X-100) • 1-2) Stop buffer (100 mM HEPES, pH 7.5, 0.015% Brij-35, 0.2% Coating Reagent #3, 50 mM EDTA) • 2. Compound and assay plate preparation: the compound was diluted to 50× of the final desired highest inhibitor concentration in reaction by 100% DMSO. 100 μl of this compound dilution was transferred to a well in a 96-well plate. For example, if the highest desired concentration was 5 μM, then 250 μM of compound DMSO solution was prepared in this step. For all compounds, the compound was serially diluted by transferring 10 μl to 70 μl of 100 DMSO in the next well and so forth for a total of 5 concentrations. 100 μl of 100% DMSO was added to two empty wells for no compound control and no enzyme control in the same 96-well plate. The plate was labeled as source plate. The intermediate plate was prepared by transferring 10 μl of compound from source plate to a new 96-well plate as the intermediate plate, adding 90 μl of 1× kinase buffer to each well of the intermediate plate, mixing the compounds in intermediate plate for 10 min on shaker. 5 μl of each well from the 96-well intermediate plate were transferred to a 384-well plate in duplicates. For example, A1 of the 96-well plate was transferred to A1 and A2 of the 384-well plate. A2 of the 96-well plate was transferred to A3 and A4 of the 384-well plate, and so on. • 4. Kinase reaction: The assay plate already contained 5 μl of compound in 10% DMSO. A 2.5× enzyme solution was prepared by adding kinases (cKit, RET, or AXL) and DTT in 1× kinase base buffer. 2.5× enzyme solution was transferred to the assay plate (by adding 10 μl of 2.5× enzyme solution to each well of the 384-well assay plate). The plate was incubated at room temperature for 10 min. 2.5× peptide solution was prepared by adding FAM-labeled peptide, ATP, MgCl2 in the 1× kinase base buffer. 2.5× peptide solution was added to the assay plate by adding 10 μl of 2.5× peptide solution to each well of the 384-well assay plate. The plate was incubated at 28° C. for the specified period of time. 25 μl of stop buffer was added to stop reaction. Data was collected on Caliper.

The target of test [2] is HPK1 (MAP4K1) (Homo sapiens, UniProt Q92918). The experiment in a line: HPK1 (MAP4K1) kinase Lantha screen assay. The procedure, abridged:
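Recombinant MAP4K1 preincubated 10 min with compound (6-point dilution, duplicates) in 50 mM HEPES pH 7.5, 10 mM MgCl2, then reacted with Fluorescein-PKC substrate and ATP for 90 min at room temperature. Antibody detection solution stopped reaction; after 60 min, TR-FRET read at ex 340 nm, em 520/495 nm.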

Test [3] concerns the target PAK1 (Homo sapiens, UniProt Q13153). Nature of the test: In vitro kinase assay, PAK1 (Caliper EZ Reader conversion). On the set-up: purchased Carna Biosciences. The procedure, abridged: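 Human PAK1 was preincubated with compound (6 concentrations, 4-fold dilutions) for 10 min at room temperature, then reacted with substrate mix for 30 and 60 min. Substrate conversion was read by Caliper mobility shift. IC50 was fitted by variable-slope log(inhibitor)–response, normalised to FRAX597 and buffer controls.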

Some results are limits rather than exact numbers.

Sequence of HPK1 (MAP4K1) (Q92918 whole entry, species assumed): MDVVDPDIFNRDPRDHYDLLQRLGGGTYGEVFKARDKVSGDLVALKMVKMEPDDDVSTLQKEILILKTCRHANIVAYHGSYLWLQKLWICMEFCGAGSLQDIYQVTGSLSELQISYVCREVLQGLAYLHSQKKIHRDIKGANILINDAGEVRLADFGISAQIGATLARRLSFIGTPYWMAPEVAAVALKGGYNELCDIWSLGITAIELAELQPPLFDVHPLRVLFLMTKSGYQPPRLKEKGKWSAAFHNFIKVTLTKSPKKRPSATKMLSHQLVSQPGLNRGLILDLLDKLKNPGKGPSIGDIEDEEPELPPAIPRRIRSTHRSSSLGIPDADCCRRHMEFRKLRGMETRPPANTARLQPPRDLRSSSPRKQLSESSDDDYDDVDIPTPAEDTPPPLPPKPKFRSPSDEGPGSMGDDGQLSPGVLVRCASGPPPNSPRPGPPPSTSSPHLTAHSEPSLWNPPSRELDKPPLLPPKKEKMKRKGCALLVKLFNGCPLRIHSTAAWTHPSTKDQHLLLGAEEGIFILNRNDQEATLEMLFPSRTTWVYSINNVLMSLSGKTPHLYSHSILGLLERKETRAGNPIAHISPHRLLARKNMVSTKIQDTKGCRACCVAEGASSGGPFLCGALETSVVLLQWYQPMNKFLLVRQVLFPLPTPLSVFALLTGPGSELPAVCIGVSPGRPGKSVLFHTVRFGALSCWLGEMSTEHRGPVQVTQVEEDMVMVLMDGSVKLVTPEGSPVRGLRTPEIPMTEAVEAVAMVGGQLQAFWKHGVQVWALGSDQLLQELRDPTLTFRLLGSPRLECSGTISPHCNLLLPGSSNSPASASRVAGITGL
Sequence of c-Kit (P10721 26-976): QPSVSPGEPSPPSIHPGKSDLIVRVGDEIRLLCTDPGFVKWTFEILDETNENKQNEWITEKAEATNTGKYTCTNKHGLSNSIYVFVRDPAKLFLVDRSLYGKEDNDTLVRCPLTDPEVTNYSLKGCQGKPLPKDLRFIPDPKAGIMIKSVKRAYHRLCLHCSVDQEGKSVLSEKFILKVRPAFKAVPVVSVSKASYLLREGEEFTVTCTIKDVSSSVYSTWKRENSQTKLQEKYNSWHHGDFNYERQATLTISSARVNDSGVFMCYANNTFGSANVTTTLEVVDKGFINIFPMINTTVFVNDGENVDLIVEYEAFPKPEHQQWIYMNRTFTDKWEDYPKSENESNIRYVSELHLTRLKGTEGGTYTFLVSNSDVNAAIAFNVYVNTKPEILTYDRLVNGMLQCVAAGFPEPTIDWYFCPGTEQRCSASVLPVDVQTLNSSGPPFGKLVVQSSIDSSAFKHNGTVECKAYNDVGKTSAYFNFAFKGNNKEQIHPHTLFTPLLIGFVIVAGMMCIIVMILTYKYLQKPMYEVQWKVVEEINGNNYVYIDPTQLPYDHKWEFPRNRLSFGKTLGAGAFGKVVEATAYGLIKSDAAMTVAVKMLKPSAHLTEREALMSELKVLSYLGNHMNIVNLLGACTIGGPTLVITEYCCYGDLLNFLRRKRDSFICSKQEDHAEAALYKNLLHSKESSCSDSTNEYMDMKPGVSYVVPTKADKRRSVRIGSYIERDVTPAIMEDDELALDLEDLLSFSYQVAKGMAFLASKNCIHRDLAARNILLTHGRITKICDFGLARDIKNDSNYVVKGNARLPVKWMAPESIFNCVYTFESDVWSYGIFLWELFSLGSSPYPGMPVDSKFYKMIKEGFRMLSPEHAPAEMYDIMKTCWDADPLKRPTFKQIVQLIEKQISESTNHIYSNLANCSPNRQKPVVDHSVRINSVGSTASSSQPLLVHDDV
Sequence of PAK1 (Q13153 whole entry): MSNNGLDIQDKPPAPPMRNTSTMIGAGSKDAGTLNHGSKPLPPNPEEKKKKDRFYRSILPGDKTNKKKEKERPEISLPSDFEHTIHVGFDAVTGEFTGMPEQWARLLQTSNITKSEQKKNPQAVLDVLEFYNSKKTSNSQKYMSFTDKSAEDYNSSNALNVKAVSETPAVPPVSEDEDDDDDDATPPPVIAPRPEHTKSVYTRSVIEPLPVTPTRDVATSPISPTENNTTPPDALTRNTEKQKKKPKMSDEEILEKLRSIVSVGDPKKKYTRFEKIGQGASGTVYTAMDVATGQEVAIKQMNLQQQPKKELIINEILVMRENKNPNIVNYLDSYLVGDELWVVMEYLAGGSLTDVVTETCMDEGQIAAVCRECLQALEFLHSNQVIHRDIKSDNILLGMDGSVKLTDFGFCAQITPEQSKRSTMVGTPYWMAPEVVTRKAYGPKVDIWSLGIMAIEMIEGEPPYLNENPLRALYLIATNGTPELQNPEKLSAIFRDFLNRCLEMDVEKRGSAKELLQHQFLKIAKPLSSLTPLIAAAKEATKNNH

As for `CNc1ncc2c(n1)N1CCN=C1C(c1cc(NC(=O)Nc3ccc(Cl)cc3F)c(F)cc1C)=C2` [Compound 337, 1-(4-chloro-2-fluorophenyl)-3-(2-fluoro-4-methyl-5-(2-(methylamino)-8,9-dihydroimidazo[1′,2′:1,6]pyrido[2,3-d]pyrimidin-6-yl)phenyl)urea], the IC50 in test [1] was below 100 nM. Regarding `CNc1ncc2c(n1)N1CCN=C1C(Oc1ccc(NC(=O)Nc3ccc(Cl)c(C(F)(F)F)c3)cc1)=C2` [Compound 313, 1-(4-chloro-3-(trifluoromethyl)phenyl)-3-(4-((2-(methylamino)-8,9-dihydroimidazo[1′,2′:1,6]pyrido[2,3-d]pyrimidin-6-yl)oxy)phenyl)urea], the IC50 in test [1] lay in the range of 100 to 10000 nM.

Take `CNc1ncc2c(n1)N1CCN=C1C(c1c(C)ccc(NC(=O)c3cc(C(F)(F)F)ccn3)c1F)=C2` [Compound 140, N-(2-fluoro-4-methyl-3-(2-(methylamino)-8,9-dihydroimidazo[1′,2′:1,6]pyrido[2,3-d]pyrimidin-6-yl)phenyl)-4-(trifluoromethyl)picolinamide]: in test [1], the IC50 lay within 100 to 10000 nM. As to `Cc1ccc(NC(=O)c2cc(C(F)(F)F)ccn2)cc1C1=Cc2cnc(Nc3cnn(C)c3)nc2N2CCN=C12` [Compound 195, N-(4-methyl-3-(2-((1-methyl-1H-pyrazol-4-yl)amino)-8,9-dihydroimidazo[1′,2′:1,6]pyrido[2,3-d]pyrimidin-6-yl)phenyl)-4-(trifluoromethyl)picolinamide], the IC50 in test [2] and in test [1] was below 100 nM in each case. `CNc1ncc2c(n1)N1CCN=C1C(c1cc(NC(=O)NC3CC3)c(F)cc1C)=C2` [Compound 315, 1-cyclopropyl-3-(2-fluoro-4-methyl-5-(2-(methylamino)-8,9-dihydroimidazo[1′,2′:1,6]pyrido[2,3-d]pyrimidin-6-yl)phenyl)urea]: the IC50 in test [1] is above 10000 nM. On the same count and under the same terms, the figure for `CNc1ncc2c(n1)N1CCN=C1C(c1cc(NC(=O)Nc3ccccc3Cl)c(F)cc1Br)=C2` [Compound 327, 1-(4-bromo-2-fluoro-5-(2-(methylamino)-8,9-dihydroimidazo[1′,2′:1,6]pyrido[2,3-d]pyrimidin-6-yl)phenyl)-3-(2-chlorophenyl)urea] is below 100 nM. For `Cc1ccc(NC(=O)c2cc(C(F)(F)F)ccn2)cc1C1=Cc2cnc(Nc3cccc(CO)c3)nc2N2CCN=C12` [Compound 229, N-(3-(2-((3-(hydroxymethyl)phenyl)amino)-8,9-dihydroimidazo[1′,2′:1,6]pyrido[2,3-d]pyrimidin-6-yl)-4-methylphenyl)-4-(trifluoromethyl)picolinamide], the IC50 in test [2] and in test [1] was below 100 nM in each case. Consider `CNc1ncc2c(n1)N1CCN=C1C(c1cc(NC(=O)Nc3ccccc3)c(F)cc1Br)=C2` [Compound 326, 1-(4-bromo-2-fluoro-5-(2-(methylamino)-8,9-dihydroimidazo[1′,2′:1,6]pyrido[2,3-d]pyrimidin-6-yl)phenyl)-3-phenylurea], for which the IC50 in test [1] was below 100 nM. The same measure, in the same setting: the figure for `Cn1cc(Nc2ncc3c(n2)N2CCN=C2C(c2ccc(Cl)cc2Cl)=C3)cn1` [Compound 102, 6-(2,4-dichlorophenyl)-N-(1-methyl-1H-pyrazol-4-yl)-8,9-dihydroimidazo[1′,2′:1,6]pyrido[2,3-d]pyrimidin-2-amine] is below 100 nM.

Take `CNc1ncc2c(n1)N1CCN=C1C(c1cc(NC(=O)NCCC(C)(C)C)c(F)cc1C)=C2` [Compound 317, 1-(3,3-dimethylbutyl)-3-(2-fluoro-4-methyl-5-(2-(methylamino)-8,9-dihydroimidazo[1′,2′:1,6]pyrido[2,3-d]pyrimidin-6-yl)phenyl)urea]: the IC50 was 100 to 10000 nM in test [2] and below 100 nM in test [1]. For `CCNc1ncc2c(n1)N1CCN=C1C(c1cc(NC(=O)Nc3ccccc3Cl)c(F)cc1C)=C2` [Compound 332, 1-(2-chlorophenyl)-3-(5-(2-(ethylamino)-8,9-dihydroimidazo[1′,2′:1,6]pyrido[2,3-d]pyrimidin-6-yl)-2-fluoro-4-methylphenyl)urea], the IC50 in test [1] was below 100 nM. Same read-out and setting: under `CNc1ncc2c(n1)N1CCN=C1C(c1cc(NC(=O)Nc3ccccc3F)c(F)cc1C)=C2` [Compound 338, 1-(2-fluoro-4-methyl-5-(2-(methylamino)-8,9-dihydroimidazo[1′,2′:1,6]pyrido[2,3-d]pyrimidin-6-yl)phenyl)-3-(2-fluorophenyl)urea] stands below 100 nM; under `O=C(Nc1cc(C2=Cc3cnc(NC4COC4)nc3N3CCN=C23)c(Br)cc1F)c1cc(C(F)(F)F)ccn1` [Compound 188, N-(4-bromo-2-fluoro-5-(2-(oxetan-3-ylamino)-8,9-dihydroimidazo[1′,2′:1,6]pyrido[2,3-d]pyrimidin-6-yl)phenyl)-4-(trifluoromethyl)picolinamide], below 100 nM. Regarding `CNc1ncc2c(n1)N1CCN=C1C(c1cc(NC(=O)Nc3ccccc3Cl)c(F)cc1C)=C2` [Compound 331, 1-(2-chlorophenyl)-3-(2-fluoro-4-methyl-5-(2-(methylamino)-8,9-dihydroimidazo[1′,2′:1,6]pyrido[2,3-d]pyrimidin-6-yl)phenyl)urea], the IC50 in test [2] was 100 to 10000 nM; in test [1] it was below 100 nM. On to `O=C(Nc1ccccc1)Nc1cc(C2=Cc3cnc(NC4COC4)nc3N3CCN=C23)c(Br)cc1F` [Compound 328, 1-(4-bromo-2-fluoro-5-(2-(oxetan-3-ylamino)-8,9-dihydroimidazo[1′,2′:1,6]pyrido[2,3-d]pyrimidin-6-yl)phenyl)-3-phenylurea], for which the IC50 in test [1] was below 100 nM. On to `CN1CCN(c2ccc(Nc3ncc4c(n3)N3CCN=C3C(c3ccccc3Cl)=C4)cn2)CC1` [Compound 92, 6-(2-chlorophenyl)-N-(6-(4-methylpiperazin-1-yl)pyridin-3-yl)-8,9-dihydroimidazo[1′,2′:1,6]pyrido[2,3-d]pyrimidin-2-amine], for which the IC50 in test [1] and in test [3] was 100 to 10000 nM each time. As to `CNc1ncc2c(n1)N1CCN=C1C(c1cc(NC(=O)NCCC(F)(F)F)c(F)cc1C)=C2` [Compound 316, 1-(2-fluoro-4-methyl-5-(2-(methylamino)-8,9-dihydroimidazo[1′,2′:1,6]pyrido[2,3-d]pyrimidin-6-yl)phenyl)-3-(3,3,3-trifluoropropyl)urea], the IC50 in test [2] was above 10000 nM; in test [1], 100 to 10000 nM. With `CNc1ncc2c(n1)N1CCN=C1C(Oc1ccc(NC(=O)NC3CC3)cc1)=C2` [Compound 312, 1-cyclopropyl-3-(4-((2-(methylamino)-8,9-dihydroimidazo[1′,2′:1,6]pyrido[2,3-d]pyrimidin-6-yl)oxy)phenyl)urea], the IC50 in test [1] was above 10000 nM.

Take `CN1CCC(n2cc(Nc3ncc4c(n3)N3CCN=C3C(c3ccc(Cl)cc3Cl)=C4)cn2)CC1` [Compound 103, 6-(2,4-dichlorophenyl)-N-(1-(1-methylpiperidin-4-yl)-1H-pyrazol-4-yl)-8,9-dihydroimidazo[1′,2′:1,6]pyrido[2,3-d]pyrimidin-2-amine]: the IC50 in test [1] was below 100 nM. On the same count and under the same terms, the figure for `O=C(Nc1cc(C2=Cc3cnc(NC4COC4)nc3N3CCN=C23)c(Br)cc1F)Nc1ccccc1Cl` [Compound 329, 1-(4-bromo-2-fluoro-5-(2-(oxetan-3-ylamino)-8,9-dihydroimidazo[1′,2′:1,6]pyrido[2,3-d]pyrimidin-6-yl)phenyl)-3-(2-chlorophenyl)urea] is below 100 nM. Still for that read-out and setting: under `CNc1ncc2c(n1)N1CCN=C1C(c1cc(NC(=O)Nc3ccccc3F)c(Cl)cc1C)=C2` [Compound 334, 1-(2-chloro-4-methyl-5-(2-(methylamino)-8,9-dihydroimidazo[1′,2′:1,6]pyrido[2,3-d]pyrimidin-6-yl)phenyl)-3-(2-fluorophenyl)urea] stands below 100 nM.
